We go through 5 molecules from article PMC5843698, “Use of QSPR Modeling to Characterize In Vitro Binding of Drugs to a Gut-Restricted Polymer” (Pharmaceutical Research, 2018).

A short description of series [1]: Dose-response in vitro patiromer binding across a range of test drug concentrations. Particulars: across a clinically relevant dose range.
Series [2] can be described thus: In vitro binding assay: free test drug recovered after 3 h incubation with and without patiromer in SGF, acetate buffer or SIF. The following applies: for SGF / SIF / AB: QSPR input data; for SGF: test matrix SGF; for SIF: test matrix SIF; for AB: test matrix acetate buffer (AB); for In Vitro Binding (% Drug Recovered) Acetate Buffer (pH 4.5) / In Vitro Binding (% Drug Recovered) SGF (pH 3) / In Vitro Binding (% Drug Recovered) SIF (pH 5.9): patiromer 25.2 g/L, 3 h, 37°C, geometric mean of 12 replicates; for In Vitro Binding (% Drug Recovered) SGF (pH 3): simulated gastric fluid, final pH 3.0; for In Vitro Binding (% Drug Recovered) SIF (pH 5.9): simulated intestinal fluid, final pH 5.9; for In vitro patiromer binding category: strong, weak or non-binding; for Binding categories (level of in vitro interaction with patiromer): across SGF, AB and SIF test matrices.

The conditions of series [3]: test drug given together with patiromer, healthy volunteers; a drug listed in the table cell = AUC reduced; cited from earlier work.
Series [4] is described as follows: pKa determination by titration in aqueous solution (UV or pH monitored). The following applies: average of three determinations; for pKa: aqueous solution.
Series [5] is described as follows: logP determination by titration in octanol/water. Particulars: octanol/water.
A short description of series [6]: logD determination (liquid-liquid distribution chromatography, octanol-coated column). Particulars: octanol-coated column with octanol-saturated mobile phase.

“Also recorded” adds a separate entry of the source. Counter-ions that a name gives are not always drawn.

As to `COc1cc(Cc2cnc(N)nc2N)cc(OC)c1OC` [Trimethoprim], in series [1], the “Concentration dependence of in vitro binding to patiromer” value is recorded as “did not show strong concentration dependence”. In series [2], the SGF is reported as 36.3, the SIF is recorded as 28.4, the AB is recorded as 55.3 and the “In Vitro Binding (% Drug Recovered) Acetate Buffer (pH 4.5)” value came out at 55.3%. Also, in series [2], the “In Vitro Binding (% Drug Recovered) SGF (pH 3)” value is recorded as 36.3%, the “In Vitro Binding (% Drug Recovered) SIF (pH 5.9)” value is reported as 28.4% and the “In vitro patiromer binding category” value is reported as “strong binders”.

In the case of `CN(C)C(=N)N=C(N)N` [Metformin HCl], in series [2], the SGF amounted to 48.9, the SIF turned out to be 80.2, the AB is on record as 81.8 and the “In Vitro Binding (% Drug Recovered) Acetate Buffer (pH 4.5)” value is given as 81.8%. For the same molecule, in series [2], the “Binding categories (level of in vitro interaction with patiromer)” value is “Weak binder (30–55% bound in one test matrix)”, the “In Vitro Binding (% Drug Recovered) SGF (pH 3)” value was 48.9%, the “In Vitro Binding (% Drug Recovered) SIF (pH 5.9)” value is on record as 80.2% and the “In vitro patiromer binding category” value was “weak binder”. Also, the “AUC reduced when co-administration (lower bound of the 90% CI <80%)” value in series [3] is “moderate reduction in AUC; also recorded: Metformin, 1000 mg”.

As for `C=C[C@H]1C[N@@]2CC[C@H]1C[C@@H]2[C@@H](O)c1ccnc2ccc(OC)cc12` [Quinidine], the “Concentration dependence of in vitro binding to patiromer” value in series [1] was “did not show strong concentration dependence”. Besides, in series [2], the SGF was determined as 12.6, the SIF was 24.3, the “In Vitro Binding (% Drug Recovered) SGF (pH 3)” value is given as 12.6% and the “In Vitro Binding (% Drug Recovered) SIF (pH 5.9)” value was 24.3%. For the same molecule, the “In vitro patiromer binding category” value in series [2] is recorded as “strong binders”.

In the case of `N[C@@H](Cc1cc(I)c(Oc2cc(I)c(O)c(I)c2)c(I)c1)C(=O)O` [Levothyroxine sodium], in series [4] (pKa (B = base), basic group), the pKa was 8.73. The molecule further showed a logP in series [5] of 3.44. Further, the “Behaviour of drug in the presence of patiromer and its calcium counter-ion” value in series [2] (in vitro binding assay conditions) was “precipitated in the presence of patiromer and its calcium counter-ion”. Also, the chromatographic logD is 3.44 in series [6] (pH 3), 3.44 in series [6] (pH 4.5) and 3.37 in series [6] (pH 5.9). Also, the “AUC reduced when co-administration (lower bound of the 90% CI <80%)” value in series [3] is reported as “Ciprofloxacin, 500 mg Levothyroxine, 0.6 mg”.

For `CC1(C)S[C@@H]2[C@H](NC(=O)[C@H](N)c3ccc(O)cc3)C(=O)N2[C@H]1C(=O)O` [Amoxicillin], the “pKa (A = acid)” value in series [4] (acidic group) was 2.60. For the same molecule, in series [4] (pKa (A = acid), acidic group), the pKa worked out at 9.59. Also, the pKa in series [4] (pKa (B = base), basic group) turned out to be 7.35. Also, in series [5], the logP is -0.02. For the same molecule, in series [2], the SIF was 99.4, the AB is 99.2, the “In Vitro Binding (% Drug Recovered) Acetate Buffer (pH 4.5)” value is reported as 99.2% and the “Binding categories (level of in vitro interaction with patiromer)” value was “No binding (<30% drug bound in any test matrix)”. Also, the “In Vitro Binding (% Drug Recovered) SIF (pH 5.9)” value in series [2] is listed as 99.4%. The molecule further yielded a chromatographic logD in series [6] (pH 3) of 1.65. Further, the chromatographic logD in series [6] (pH 4.5) is 0.46. The molecule also registered a chromatographic logD in series [6] (pH 5.9) of 0.

Broadly, the pKa is the negative logarithm of the acid dissociation constant. Lower therefore signals a group that gives up its proton readily. As a reminder, the logP is the decadic logarithm of the partition coefficient of the neutral form, usually between octanol and water. Low readings indicate a more hydrophilic compound, high ones a more lipophilic compound. The chromatographic logD is a lipophilicity value derived from retention on a column. Low values mean a more hydrophilic compound, high ones a more lipophilic compound.
